Tests used:
KRas wild type = test: Ras GTP Binding Domain Inhibition Assay (Ras Superfamily Assay); conditions: 20 μM compound; for KRas wild type + SOS: % inh.: with SOS; for KRas wild type: % inh.: without SOS
Procedure, shortened: (§1)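 His-tagged GTPases immobilised on nickel-coated plates, pre-incubated with compound (20 μM single point, or serial dilution for IC50) 3 h at room temperature, with or without 10-30 μg/mL Sos (residues 556-1049) in the final hour. Bound Cy3- or Cy5-GTP (100 nM, 45 min) measured by fluorescence after washing.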

KRas G12C mutant = test: as above; conditions: 20 μM compound; for KRas G12C mutant + SOS: % inh.: with SOS; for KRas G12C mutant: % inh.: without SOS
Procedure, shortened: as §1

KRas Q61H mutant = test: as above; conditions: 20 μM compound; for KRas Q61H mutant + SOS: % inh.: with SOS; for KRas Q61H mutant: % inh.: without SOS
Procedure, shortened: as §1

KRas G12D mutant = test: as above; conditions: 20 μM compound; for KRas G12D mutant + SOS: % inh.: with SOS; for KRas G12D mutant: % inh.: without SOS
Procedure, shortened: as §1

Rho-A = target: T1, Rho-A (Homo sapiens, UniProt P61586); test: as above; conditions: read-out: Rho-A: % inh..
T1 construct: made in house
T1 sequence (P61586 whole entry): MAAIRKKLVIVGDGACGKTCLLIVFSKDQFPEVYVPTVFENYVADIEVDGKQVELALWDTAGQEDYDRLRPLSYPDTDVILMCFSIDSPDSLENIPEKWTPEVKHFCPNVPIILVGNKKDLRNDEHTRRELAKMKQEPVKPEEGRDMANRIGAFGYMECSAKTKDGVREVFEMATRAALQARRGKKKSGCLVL
Procedure, shortened: as §1

Rac-1 = target: T2, Rac-1 (Homo sapiens, UniProt P63000); test: as above; conditions: read-out: Rac-1: % inh.
T2 construct: made in house
Procedure, shortened: as §1

Akt phosphorylation = test: Akt Phosphorylation Assay (western blot), Panc-1; format: cell-based, human; conditions: at 10 μM, * = activation
Procedure, shortened: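 Panc-1 (KRas G12D) cells were treated with compound at 10 μM final (0.3% DMSO) for 6 h at 37 °C, or with serial dilutions for IC50. Cells were either serum-starved overnight in 0.5% FBS and then stimulated with 1.5 ng/ml EGF for 15 min, or kept in 10% FBS without stimulation. Akt Ser473 phosphorylation in lysates was read by western blot.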

| KRas wild type + SOS: % inh. (KRas wild type) | KRas wild type: % inh. (KRas wild type) | KRas G12C mutant + SOS: % inh. (KRas G12C mutant) | KRas G12C mutant: % inh. (KRas G12C mutant) | KRas Q61H mutant + SOS: % inh. (KRas Q61H mutant) | KRas Q61H mutant: % inh. (KRas Q61H mutant) | KRas G12D mutant + SOS: % inh. (KRas G12D mutant) | KRas G12D mutant: % inh. (KRas G12D mutant) | inhibition at 20 µM (Rho-A) [%] | inhibition at 20 µM (Rac-1) [%] | SMILES | % inh of Akt phosphorylation in Panc-1 (Akt phosphorylation) |
| --- | --- | --- | --- | --- | --- | --- | --- | --- | --- | --- | --- |
| A (A = 1-25% inhibition) | 0 (0 = 0% inhibition) | 0 (0 = 0% inhibition) | A (A = 1-25% inhibition) | A (A = 1-25% inhibition) | A (A = 1-25% inhibition) | A (A = 1-25% inhibition) | A (A = 1-25% inhibition) | 1 to 25 | 0 | CO[C@H]1CC[C@@H](Nc2nc(-c3nccn3C)nn3cc(-c4ccn(C(C)C)n4)c(C(C)C)c23)C1 (racemic) [Compound 36, rac 5-Isopropyl-6-(1-isopropyl-1H-pyrazol-3-yl)-N-((1R,3S)-3-methoxycyclopentyl)-2-(1-methyl-1H-imidazol-2-yl)pyrrolo[2,1-f][1,2,4]triazin-4-amine] | 0 (0% inhibition) |
| B (B = 26-49% inhibition) | 0 (0 = 0% inhibition) | B (B = 26-49% inhibition) | 0 (0 = 0% inhibition) | D (D = 76-100% inhibition) | D (D = 76-100% inhibition) | C (C = 50-75% inhibition) | B (B = 26-49% inhibition) | 1 to 25 | 26 to 49 | COCCO[C@H]1C[C@H](Nc2nc(-c3nccn3C)nn3cc(-c4cccc(OC)c4F)c(-c4ccccc4)c23)C1 [Compound 44, 6-(2-Fluoro-3-methoxyphenyl)-N-((1r,3r)-3-(2-methoxyethoxy)cyclobutyl)-2-(1-methyl-1H-imidazol-2-yl)-5-phenylpyrrolo[2,1-f][1,2,4]triazin-4-amine] | B (26-49% inhibition) |
| 0 (0 = 0% inhibition) | 0 (0 = 0% inhibition) | 0 (0 = 0% inhibition) | 0 (0 = 0% inhibition) | B (B = 26-49% inhibition) | B (B = 26-49% inhibition) | 0 (0 = 0% inhibition) | 0 (0 = 0% inhibition) | 1 to 25 | 0 | COc1cccc(-c2cn3nc(-c4nccn4C)nc(N[C@H]4C[C@H](OC)C4)c3c2-c2ccccc2)c1F [Compound 42, 6-(2-Fluoro-3-methoxyphenyl)-N-((1r,3r)-3-methoxycyclobutyl)-2-(1-methyl-1H-imidazol-2-yl)-5-phenylpyrrolo[2,1-f][1,2,4]triazin-4-amine] | D (85-100% inhibition) |
| 0 (0 = 0% inhibition) | 0 (0 = 0% inhibition) | 0 (0 = 0% inhibition) | 0 (0 = 0% inhibition) | A (A = 1-25% inhibition) | 0 (0 = 0% inhibition) | 0 (0 = 0% inhibition) | 0 (0 = 0% inhibition) | 1 to 25 | 1 to 25 | COc1cccc(Nc2nc(-c3nccn3C)nn3ccc(-c4ccccc4)c23)n1 [Compound 40, N-(6-Methoxypyridin-2-yl)-2-(1-methyl-1H-imidazol-2-yl)-5-phenylpyrrolo[2,1-f][1,2,4]triazin-4-amine] | 0 (0% inhibition) |

From patent publication US12459951B2, “Compounds that interact with RAS superfamily proteins for treatment of cancers, inflammatory diseases, rasopathies, and fibrotic disease” (SHY Therapeutics, LLC, priority 2022, dated 2025)
